Experiments:
[1] = tested on: TamR-tf (HEA3); assay: ZsGreen expression by flow cytometry in Jurkat cells transduced with dual packaged TamR ZsGreen lentivirus (constructs A and B); type: cell-based, human; conditions: 500 nM 4OHT for 24 hours, flow cytometry (FIG. 1)
Excerpt: An alternative of the TamR-LV system allows for constitutive HEA3 expression and inducible expression of either ZsGreen or chimeric antigen receptors, permitting kinetic analysis and biological effect controlled in an “ON” and “OFF” manner by the presence or absence of tamoxifen. For this, two constructs were used: 1) HEA-3 is driven by the human EF1 a promoter and linked to the constructed truncated EGFR (EGFRt) transmembrane marker protein by a T2A skip-linker sequence and cloned into a third generation epHIV7 self-inactivating lentivirus packaging plasmid (construct A). (See FIGS. 9A, 9B and 9C; SEQ ID NO: 39; Table 1: SEQ ID NO: 8 and SEQ ID NO: 9) and 2) 7xHBD/[…] controls tamoxifen-dependent expression of ZsGreen cloned into pcDNA3.1(−) which was engineered to lack the commercially used CMV promoter (construct B) (See Table 12; SEQ ID NO: 41). ZsGreen1 is a human codon-optimized ZsGreen variant that encodes the brightest commercially available green fluorescent protein. (Available from Clontech).
Jurkat cells were transduced at a MOI of 5 with lentivirus packaging constructs described above in which a dual packaging approach in which each plasmid is co-transfected into 293T cells during lentiviral production. […]

[2] = tested on: TamR-tf (HEA3); assay: 4OHT dose response of ZsGreen expression in transduced Jurkat cells; type: cell-based, human; conditions: 4OHT 0 nM-1000 nM, flow cytometry (FIG. 2)
Excerpt: (§1) Jurkat cells were transduced at a MOI of 5 with lentivirus packaging constructs described above in which a dual packaging approach in which each plasmid is co-transfected into 293T cells during lentiviral production. This construct utilized molar ratio of 1:2 of construct A to construct B. Construct A encodes the chimeric transcription factor HEA3 linked via a ribosomal cleavage sequence, T2A, to the tracking and selection marker EGFRt. Construct B encodes the synthetic, HEA3-responsive promoter, 7xHBD/mE1b which regulates expression of the transgene ZsGreen-DR1, a short half-life green fluorescent reporter gene.
Cells were harvested and were then subjected to treatment with 4OHT with concentrations ranging from 0 nM-1000 nM, as indicated. Samples were harvested, washed, and stained with EGFRt-biotin, followed by strepavidin-APC, and then analyzed by flow cytometry for ZsGreen expression.

[3] = tested on: TamR-tf (HEA3); assay: On and off rate kinetics of ZsGreen expression in transduced Jurkat cells (4OHT washout and re-stimulation); type: cell-based, human
Excerpt: as §1
The population was subjected to 500 nM 4OHT stimulation for 48 hours, and then sorted for ZsGreen+cells utilizing FACS, yielding a >99% ZsGreen+population on immediate post-sort analysis. Cells were subsequently expanded in culture for 3 weeks, and then prepared for kinetic studies. Cells were divided into 3 treatment groups: (1) no 4OHT (2) 200 nM 4OHT (added every 48 hours) (3) 24 hour 200 nM 4OHT, followed by washout 1× in PBS, then culture in 4OHT free media for 14 days, followed by a 24 hour re-stimulation with 200 nm 4OHT, and then washout in 1×PBS. At each time point, samples were harvested and analyzed via flow cytometry for ZsGreen expression. Results are shown in FIG. 3 and are presented as % ZsGreen+.

[4] = tested on: TamR-tf (HEA3); assay: ZsGreen expression in primary CD4 central memory cells transduced with constructs A and B; type: cell-based, human; conditions: inducer plus antiCD3/anti-CD28 beads (FIG. 4B)
Description: CD4 central memory cells were obtained from peripheral blood by selecting cells through flow cytometry for markers CD4, and CD62L and negative for CD45RO. Cells were cultured with anti-CD3/anti-CD28 beads for 3 days.
as §1, with “After 3 days, CD4 or CD8 central memory” for “Jurkat”
(§2) On day 21 after transduction, cells were enriched for EGFRt, and subsequently expanded with feeder cells, IL2, and IL15. Following expansion, cells were divided into 3 treatment groups, 4OHT alone (A), 4OHT combined with CD3/CD28 bead cotreatment (B) or 4OHT alone for 48 hours, followed by addition of CD3/CD28 beads (C). […] All samples were harvested at indicated time points following 4OHT treatment, stained with EGFRt-biotin antibody, followed by SA-APC, and analyzed for flow cytometry. […]

[5] = tested on: TamR-tf (HEA3); assay: ZsGreen expression in primary CD8 central memory cells transduced with constructs A and B; type: cell-based, human; conditions: inducer plus antiCD3/anti-CD28 beads (FIG. 5B)
Description: CD8 central memory cells were obtained from peripheral blood by selecting cells through flow cytometry for markers CD8, and CD62L and negative for CD45RO. Cells were cultured with anti-CD3/anti-CD28 beads for 3 days.
as §1, with “After 3 days, CD4 or CD8 central memory” for “Jurkat”
as §2

[6] = tested on: TamR-tf (HEA3); assay: Inducible CD19CAR/Her2t expression in Jurkat cells transduced with TamR-CD19CAR LV (flow cytometry and western blot); type: cell-based, human; conditions: construct not including DHFRdm, 500 nM 4OHT (FIG. 6)
Excerpt: Construction of the vector was accomplished by dual packaging of transfer plasmids housing constructs as described above at a plasmid molar ratio of 1:1. (See FIGS. 6C and 7C) Construct A under the constitutive EF-lalpha promoter encodes TamR-tf (HEA3) linked via a ribosomal cleavage sequence, T2A, to the tracking and selection marker EGFRt. (See FIGS. 9A, 9B and 9C; SEQ ID NO: 39, Table 1: SEQ ID NO: 8 and SEQ ID NO: 9) Construct B contains the 7xHBD/mE1b promoter with downstream transgene cDNA including CD19CAR linked via 2a cleavage sequence to Her2t, a tracking and selection marker. (See Table 12; SEQ ID NO: 41; Table 2 SEQ ID NO: 10; FIG. 11; SEQ ID NO: 44). Another construct was prepared adding an additional selective marker DHFRdm (See FIG. 12; SEQ ID NO: 46).
Human Jurkat cells were transduced at a MOI of 2, then were expanded in culture, and selected for EGFRt+ cells via magnetic bead selection. After further expansion, cells were either treated with vehicle alone (EtOH) or 500 nM 4OHT, and harvested for flow cytometry. Samples were stained with EGFRt-APC antibody and Herceptin-biotin, followed by SA PE. Samples were also prepared for western blot, the primary antibody used is an anti-CD247 mouse mAb which recognizes the intracellular CD3 zeta chain on the CD19CAR (˜48 kDa). The endogenous CD3 zeta migrates at ˜23 kDa.

[7] = tested on: TamR-tf (HEA3); assay: Inducible CD19CAR/Her2t expression in Jurkat cells transduced with TamR CD19CAR LV containing DHFRdm (flow cytometry and western blot); type: cell-based, human; conditions: construct including DHFRdm, 500 nM 4OHT (FIG. 7)
Description: Construction of TamR CD19CAR LV was done through dual packaging of constructs A and B. Construct A contains HEA3 linked via a ribosomal cleavage sequence, T2A, to the tracking and selection marker EGFRt.
Cells were transduced with TamR CD19CAR LV at a MOI of 1, expanded in culture, selected for EGFRt via magnetic bead selection. Following further expansion cells were treated with […] alone (EtOH) or 500 nM 4OHT, and harvested for flow cytometry, (upper panel). FIG. 7. Samples were stained with EGFRt-APC antibody and Herceptin-biotin, followed by SA-PE. Parental (untransduced Jurkat) is shown for comparison. Samples were also prepared for western blot, the primary antibody used is an anti-CD247 mouse mAb which recognizes the intracellular CD3 zeta chain on the CD19CAR (˜48 kDa). The endogenous CD3 zeta migrates at ˜23 kDa.

[8] = tested on: TamR-tf (HEA3); assay: Inducible Her2t expression in human CD4 central memory T cells transduced with TamR CD19CAR LV (with DHFRdm); type: cell-based; conditions: 500 nM 4OHT for 24 hours plus antiCD3/antiCD28 beads (FIG. 8)
Description: CD4 central memory cells were obtained from peripheral blood by selecting cells through flow cytometry for markers CD4, and CD62L and negative for CD45RO. Cells were cultured anti-CD3/anti-CD28 beads for 3 days. After 3 days, CD4 Central memory cells were transduced at a MOI of 5 with a lentivirus which packages constructs A and B. (FIG. 8B). Construct A encodes the chimeric transcription factor HEA3 linked via a ribosomal cleavage sequence, T2A, to the tracking and selection marker EGFRt. (See FIGS. 9A, 9B and 9C; SEQ ID NO: 39; Table 1; SEQ ID NO: 8 and SEQ ID NO: 9). […] (See Table 12; SEQ ID NO: 41; Table 2 SEQ ID NO: 10; FIG. 11; SEQ ID NO: 44; FIG. 12; SEQ ID NO: 46).
On day 21 after transduction, cells were enriched for EGFRt utilizing magnetic bead selection, and subsequently expanded with irradiated feeder cells, IL2, and IL15. Two weeks after expansion, cells were cryopreserved. In the experiment depicted above, CD4+ CEM cells which were mock transduced, or CD4+TamR CD19CAR LV were thawed, placed in culture with CD3/CD28 beads, IL-2, IL-15. CD4+TamRCD19CAR LV were treated or not with 500 nM 4OHT for 24 hours. All samples were harvested washed, then stained with an EGFRt-APC antibody and Her2t-biotin, followed by SA-PE, and analyzed via flow cytometry.

SMILES	cells expressing ZsGreen [1]	concentration effective to induce expression of the transgene (ZsGreen) [2]	ZsGreen expression after 4-OHT washout, % of the max ZsGreen activity ([3]; 200 nM 4OHT then washout, within 5 days (FIG. 3))	ZsGreen activity after 4-OHT is added back, % max activity ([3]; re-stimulation with 200 nM 4OHT, within 2 days (FIG. 3))	primary transduced CD4 cells expressing ZsGreen [4]	primary transduced CD8 cells expressing ZsGreen [5]	cells expressing both EGFRt and Her2t [6]	cells expressing both EGFRt and Her2t [7]	primary cells expressing both EGFRt and Her2t [8]
CC/C(=C(\c1ccc(O)cc1)c1ccc(OCCN(C)C)cc1)c1ccccc1 [4-OHT, 4-hydroxytamoxifen]	about 50%	≥ 200 nM	less than 10%	about 100%	–	–	–	–	–
CC/C(=C(\c1ccccc1)c1ccc(OCCN(C)C)cc1)c1ccccc1 [tamoxifen, 2-(4-((1Z)-1,2-diphenyl-1-butenyl)phenoxy)-N,N-dimethyl-ethanamine]	–	–	–	–	About 70%	About 37%	about 42.6%	about 7.5%	about 14.7%
